Experimental data as given in ChEMBL document CHEMBL3885861, “Open TG-GATES”.

Organism: Rattus norvegicus
Test: Open TG-GATES - Regimen: Single
Type: toxicity, organism-based, Sprague-Dawley
Parameters: regimen Single, gender Male, age 6 weeks
Conditions: in vivo, po, 10 mg/kg, route gavage, dose level High; for APTT / Bas / Eos / Fbg / Hb / Ht / Lym / MCH / MCHC / MCV / Mono / Neu / PT / Plat / RBC / Ret / WBC: tissue Blood; for KIDNEY_L / KIDNEY_R / KIDNEY_TOTAL: tissue Kidney; for LIVER: tissue Liver; for A/G / ALP / ALT / AST / BUN / CRE / Ca / Cl / DBIL / GLC / IP / K / LDH / Na / PL / RALB / TBIL / TC / TG / TP / gamma-GTP: tissue Plasma

CN1C(C(=O)Nc2ccccn2)=C(O)c2sc(Cl)cc2S1(=O)=O [LORNOXICAM]
TERMINAL_BW (3 h): 225.5 g | APTT (3 h): 20.6 s | Bas (3 h): 0.6% | Eos (3 h): 1% | Fbg (3 h): 212.8 mg/dL | Hb (3 h): 13.3 g/dL | Ht (3 h): 40.2% | Lym (3 h): 76% | MCH (3 h): 20.9 pg | MCHC (3 h): 33.3% | MCV (3 h): 63 fL | Mono (3 h): 2.8% | Neu (3 h): 19.2% | PT (3 h): 11.8 s | Plat (3 h): 112.2 x10_4/uL | RBC (3 h): 638.8 x10_4/ul | Ret (3 h): 7.5% | WBC (3 h): 112.4 x10_2/uL | KIDNEY_L (3 h): 1 g | KIDNEY_R (3 h): 1 g | KIDNEY_TOTAL (3 h): 1.9 g | LIVER (3 h): 10.3 g | A/G (3 h): 1.8 | ALP (3 h): 965.2 IU/L | ALT (3 h): 42.2 IU/L | AST (3 h): 79.2 IU/L | BUN (3 h): 13.4 mg/dL | CRE (3 h): 0.4 mg/dL | Ca (3 h): 10.7 mg/dL | Cl (3 h): 104.4 meq/L | DBIL (3 h): 0.074 mg/dL | GLC (3 h): 193.6 mg/dL | IP (3 h): 9 mg/dL | K (3 h): 4.1 meq/L | LDH (3 h): 188.8 IU/L | Na (3 h): 142.2 meq/L | PL (3 h): 139.2 mg/dL | RALB (3 h): 3.5 g/dL | TBIL (3 h): 0.1 mg/dL | TC (3 h): 76.8 mg/dL | TG (3 h): 38.2 mg/dL | TP (3 h): 5.5 g/dL | gamma-GTP (3 h): 0.6 IU/L | TERMINAL_BW (6 h): 223.7 g | APTT (6 h): 19.5 s | Bas (6 h): 0.6% | Eos (6 h): 0.8% | Fbg (6 h): 229.2 mg/dL | Hb (6 h): 13.2 g/dL | Ht (6 h): 39.3% | Lym (6 h): 76.8% | MCH (6 h): 20.5 pg | MCHC (6 h): 33.6% | MCV (6 h): 60.9 fL | Mono (6 h): 2.8% | Neu (6 h): 18.6% | PT (6 h): 12.1 s | Plat (6 h): 129.2 x10_4/uL | RBC (6 h): 644.8 x10_4/ul | Ret (6 h): 6.7% | WBC (6 h): 96.3 x10_2/uL | KIDNEY_L (6 h): 1 g | KIDNEY_R (6 h): 1 g | KIDNEY_TOTAL (6 h): 2 g | LIVER (6 h): 9.6 g | A/G (6 h): 1.6 | ALP (6 h): 989.2 IU/L | ALT (6 h): 46.8 IU/L | AST (6 h): 78.6 IU/L | BUN (6 h): 12.8 mg/dL | CRE (6 h): 0.3 mg/dL | Ca (6 h): 10.5 mg/dL | Cl (6 h): 104.8 meq/L | DBIL (6 h): 0.072 mg/dL | GLC (6 h): 196.2 mg/dL | IP (6 h): 8.6 mg/dL | K (6 h): 3.9 meq/L | LDH (6 h): 219 IU/L | Na (6 h): 141.8 meq/L | PL (6 h): 137 mg/dL | RALB (6 h): 3.5 g/dL | TBIL (6 h): 0.1 mg/dL | TC (6 h): 75.8 mg/dL | TG (6 h): 56.4 mg/dL | TP (6 h): 5.6 g/dL | gamma-GTP (6 h): 1 IU/L | TERMINAL_BW (9 h): 221.8 g | APTT (9 h): 18.9 s | Bas (9 h): 0.4% | Eos (9 h): 0.8% | Fbg (9 h): 215.6 mg/dL | Hb (9 h): 13.2 g/dL | Ht (9 h): 39.2% | Lym (9 h): 63.6% | MCH (9 h): 21.1 pg | MCHC (9 h): 33.7% | MCV (9 h): 62.6 fL | Mono (9 h): 4.2% | Neu (9 h): 30.6% | PT (9 h): 12.5 s | Plat (9 h): 113.4 x10_4/uL | RBC (9 h): 627.4 x10_4/ul | Ret (9 h): 7% | WBC (9 h): 97.9 x10_2/uL | KIDNEY_L (9 h): 1 g | KIDNEY_R (9 h): 1 g | KIDNEY_TOTAL (9 h): 2 g | LIVER (9 h): 9.3 g | A/G (9 h): 1.7 | ALP (9 h): 755.2 IU/L | ALT (9 h): 35.6 IU/L | AST (9 h): 69.8 IU/L | BUN (9 h): 13.8 mg/dL | CRE (9 h): 0.3 mg/dL | Ca (9 h): 10.5 mg/dL | Cl (9 h): 103.6 meq/L | DBIL (9 h): 0.08 mg/dL | GLC (9 h): 188 mg/dL | IP (9 h): 9.1 mg/dL | K (9 h): 4.1 meq/L | LDH (9 h): 195.6 IU/L | Na (9 h): 141.4 meq/L | PL (9 h): 130.8 mg/dL | RALB (9 h): 3.3 g/dL | TBIL (9 h): 0.1 mg/dL | TC (9 h): 67.6 mg/dL | TG (9 h): 59.2 mg/dL | TP (9 h): 5.3 g/dL | gamma-GTP (9 h): 1.2 IU/L | TERMINAL_BW (24 h): 236.6 g | APTT (24 h): 21.2 s | Bas (24 h): 0.2% | Eos (24 h): 0.4% | Fbg (24 h): 261 mg/dL | Hb (24 h): 12.8 g/dL | Ht (24 h): 38.5% | Lym (24 h): 54% | MCH (24 h): 20.9 pg | MCHC (24 h): 33.2% | MCV (24 h): 63.1 fL | Mono (24 h): 4% | Neu (24 h): 39.6% | PT (24 h): 12 s | Plat (24 h): 119.9 x10_4/uL | RBC (24 h): 610.2 x10_4/ul | Ret (24 h): 6.5% | WBC (24 h): 162.1 x10_2/uL | KIDNEY_L (24 h): 1.1 g | KIDNEY_R (24 h): 1.1 g | KIDNEY_TOTAL (24 h): 2.2 g | LIVER (24 h): 11.6 g | A/G (24 h): 1.5 | ALP (24 h): 949.2 IU/L | ALT (24 h): 38.6 IU/L | AST (24 h): 69.8 IU/L | BUN (24 h): 13.4 mg/dL | CRE (24 h): 0.4 mg/dL | Ca (24 h): 10.4 mg/dL | Cl (24 h): 105 meq/L | DBIL (24 h): 0.1 mg/dL | GLC (24 h): 203.6 mg/dL | IP (24 h): 7.6 mg/dL | K (24 h): 4.1 meq/L | LDH (24 h): 214.2 IU/L | Na (24 h): 141.4 meq/L | PL (24 h): 148.2 mg/dL | RALB (24 h): 3.1 g/dL | TBIL (24 h): 0.2 mg/dL | TC (24 h): 74.6 mg/dL | TG (24 h): 108.8 mg/dL | TP (24 h): 5.1 g/dL | gamma-GTP (24 h): 1 IU/L
